Patent US20230392170A1, “BIG-IN: A VERSATILE PLATFORM FOR LOCUS-SCALE GENOME REWRITING AND VERIFICATION” (New York University, priority 2020, published 2023)
Entries after “also recorded” stand apart in the source; their conditions may differ.

Legend:
H1 hESCs [1] = assay: TK/GCV counterselection in co-cultures of TK-negative and TK-positive (LP-TK) cells, live cells by PrestoBlue; format: cell-based, human; conditions: 1 μM GCV for 4 days
Protocol: FIG. 2. Development of an efficient counterselection strategy. a, Parental (TK−) and LP-TK (TK+) H1 hESCs were co-cultured at the indicated ratios, treated with 1 μM, GCV for 4 days, and assayed for the number of live cells using PrestoBlue. Cell counts are shown relative to unmixed parental cells. Bars show mean+S.D. (n=2). b, GCV enters TK+ cells and is metabolized into the toxic membrane-impermeable compound GCV-TP, which diffuses into neighboring cells and induces bystander cell death in TK-cells. c, Big-IN counterselection strategy using PIGA/Proaerolysin. d, Parental and ΔPIGA H1 hESCs co-cultured at the indicated ratios for three days were treated with 1 nM proaerolysin for 1 day and stained with Crystal Violet 3 days later. e, Parental and ΔPiga BL6xCAST mESCs were co-cultured at the indicated ratios for one day, treated with 1 nM proaerolysin for 1 day, stained with Crystal Violet 5 days later, and colonies were counted. Bars represent mean+S.D. (n=2).
Delivery of large DNA through cassette exchange is an infrequent event, requiring selection to obtain practical efficiency. The HSV1-TK gene is a widely used counterselectable marker that renders cells sensitive to GCV by converting it to the toxic metabolite GCV-triphosphate (GCV-TP), which inhibits DNA synthesis and leads to cell death^38. […]

Parental H1 cells = assay: GCV/TK bystander paracrine test: parental cells in medium or LP-TK conditioned medium with GCV; format: cell-based, human; conditions: 0.1 μM GCV, 7 days, also when preincubated with LP-TK cells (conditioned medium)
Protocol: FIG. 8. Development of an efficient counterselection strategy. a, Lack of paracrine activity in GCV/TK bystander effect. Parental H1 cells were grown for 7 days with regular StemFlex medium with or without 0.1 μM GCV or with a 1:1 mixture of regular medium and conditioned medium harvested from LP-TK cells grown with or without 0.1 μM GCV. […] Bars represent mean+S.D. for technical replicates (n=3). b, PCR genotyping for parental (Par), ΔPIGA and LP-PIGA H1 hESCs. Primers target a region of the PIGA gene (WT PIGA), the novel junction formed following PIGA deletion (ΔPIGA), a region of HPRT1 gene (WT HPRT1) and the two novel junctions formed between LP-PIGA and the surrounding genome (LP L and R Jx). c, Proaerolysin-induced cell death. The indicated H1 hESCs were treated with 0.5 nM proaerolysin for 1 day and stained with Crystal Violet. Proaerolysin resistance is conferred by PIGA inactivation and restored by hmPIGA expression. d, Rapid proaerolysin-induced cell death. e, Proaerolysin kill-curve for H1 hESCs and BL6xCAST mESCs. Cells were treated with proaerolysin for 1 day and assayed 3 days (H1) or 1 day (BL6xCAST) post treatment. Experiment was conducted in replicates (H1, n=4; BL6xCAST, n=2) and data are represented as mean±S.D. f, CD59/HLA flow cytometry of H1 hESCs. […]

[2] = test system: H1 LP-TK hESCs (HSV1-ΔTK); assay: GCV kill-curve assay, LP-TK clone 581 vs parental cells, live cells by PrestoBlue; conditions: indicated GCV concentrations for 3 days
Protocol: Bars represent mean+S.D. of technical replicates (n=3). c, H1 LP-TK clone 581 and non-engineered parental H1 hESCs were treated with the indicated concentrations of GCV for 3 days, followed by quantification of live cells using PrestoBlue. Data were normalized to the value of untreated cells.
PrestoBlue (ThermoFisher Scientific A13262) staining was performed according to the manufacturer's protocol.

H1 hESCs [3] = assay: Proaerolysin-induced cell death, Crystal Violet staining / kill-curve; format: cell-based, human
Protocol: FIG. 8. Development of an efficient counterselection strategy. a, Lack of paracrine activity in GCV/TK bystander effect. Parental H1 cells were grown for 7 days with regular StemFlex medium with or without 0.1 μM GCV or with a 1:1 mixture of regular medium and conditioned medium harvested from LP-TK cells grown with or without 0.1 μM GCV. […] Bars represent mean+S.D. for technical replicates (n=3). b, PCR genotyping for parental (Par), ΔPIGA and LP-PIGA H1 hESCs. Primers target a region of the PIGA gene (WT PIGA), the novel junction formed following PIGA deletion (ΔPIGA), a region of HPRT1 gene (WT HPRT1) and the two novel junctions formed between LP-PIGA and the surrounding genome (LP L and R Jx). c, Proaerolysin-induced cell death. The indicated H1 hESCs were treated with 0.5 nM proaerolysin for 1 day and stained with Crystal Violet. Proaerolysin resistance is conferred by PIGA inactivation and restored by hmPIGA expression. d, Rapid proaerolysin-induced cell death. e, Proaerolysin kill-curve for H1 hESCs and BL6xCAST mESCs. Cells were treated with proaerolysin for 1 day and assayed 3 days (H1) or 1 day (BL6xCAST) post treatment. Experiment was conducted in replicates (H1, n=4; BL6xCAST, n=2) and data are represented as mean±S.D. f, CD59/HLA flow cytometry of H1 hESCs. Note the complete loss of CD59, a GPI-anchored protein, in ΔPIGA cells, and the retention of HLA, a non-GPI-anchored membranal protein. g, Flow cytometry of H1 hESCs showing the reconstitution of CD59 expression in LP-PIGA cells.
Integration of a landing pad expressing a human mini PIGA gene (hmPIGA) to the HPRT1 locus resensitized H1 ΔPIGA hESCs to proaerolysin and restored CD59 expression (FIG. 7c, FIG. 7g). Importantly, rare ΔPIGA H1 hESCs were efficiently isolated when co-cultured with parental H1 cells by applying proaerolysin selection (FIG. 2d). Similarly, the Piga/proaerolysin counterselection strategy was used to efficiently isolate rare mESCs (FIG. 2e).

With `Nc1nc(O)c2ncn(COC(CO)CO)c2n1` [GCV, Ganciclovir] the “TK-negative cells that died when mixed with TK-positive cells” value (H1 hESCs [1]; 1:1 ratio TK-negative:TK-positive) was “More than 80%”, the “death of TK-negative cells when mixed with TK-positive cells” value (H1 hESCs [1]; 1:10 ratio TK-negative:TK-positive) was “all died” and the “effect on parental (TK-negative) H1 cells” value (Parental H1 cells) was “no effect”. For the same molecule, the “cytotoxicity to LP-TK (HSV1-ΔTK expressing) H1 hESCs” value [2] was “kills LP-TK cells; also recorded: Robust cytotoxic activity”.
With “proaerolysin: a bacterial prototoxin; perforates the plasma membrane upon binding to GPI anchors on the cell surface” the “sensitivity of H1 ΔPIGA hESCs after landing pad expressing hmPIGA at HPRT1” value (H1 hESCs [3]; LP-PIGA H1 hESCs) was “resensitized”, the “killing of parental H1 hESCs” value (H1 hESCs [3]; parental H1 hESCs) was “efficiently killed” and the “sensitivity of ΔPIGA H1 hESCs” value (H1 hESCs [3]; ΔPIGA cells (PIGA deleted using CRISPR/Cas9)) was “entirely resistant”.
